In paper PMC7235778, “Methylxanthines Inhibit Primary Amine Oxidase and Monoamine Oxidase Activities of Human Adipose Tissue” (Medicines, 2020):

What was measured:
[1] = target: T1, primary amine oxidase (PrAO; SSAO/VAP-1) (Homo sapiens, UniProt Q16853); experiment: Amplex Red H2O2 assay of methylamine and benzylamine oxidation in adipose tissue homogenate; format: cell-based; details: read-out: % inhibition at 1 mM
T1 construct: gene AOC3; native enzyme in human subcutaneous adipose tissue homogenate
T1 sequence (Q16853 1-763): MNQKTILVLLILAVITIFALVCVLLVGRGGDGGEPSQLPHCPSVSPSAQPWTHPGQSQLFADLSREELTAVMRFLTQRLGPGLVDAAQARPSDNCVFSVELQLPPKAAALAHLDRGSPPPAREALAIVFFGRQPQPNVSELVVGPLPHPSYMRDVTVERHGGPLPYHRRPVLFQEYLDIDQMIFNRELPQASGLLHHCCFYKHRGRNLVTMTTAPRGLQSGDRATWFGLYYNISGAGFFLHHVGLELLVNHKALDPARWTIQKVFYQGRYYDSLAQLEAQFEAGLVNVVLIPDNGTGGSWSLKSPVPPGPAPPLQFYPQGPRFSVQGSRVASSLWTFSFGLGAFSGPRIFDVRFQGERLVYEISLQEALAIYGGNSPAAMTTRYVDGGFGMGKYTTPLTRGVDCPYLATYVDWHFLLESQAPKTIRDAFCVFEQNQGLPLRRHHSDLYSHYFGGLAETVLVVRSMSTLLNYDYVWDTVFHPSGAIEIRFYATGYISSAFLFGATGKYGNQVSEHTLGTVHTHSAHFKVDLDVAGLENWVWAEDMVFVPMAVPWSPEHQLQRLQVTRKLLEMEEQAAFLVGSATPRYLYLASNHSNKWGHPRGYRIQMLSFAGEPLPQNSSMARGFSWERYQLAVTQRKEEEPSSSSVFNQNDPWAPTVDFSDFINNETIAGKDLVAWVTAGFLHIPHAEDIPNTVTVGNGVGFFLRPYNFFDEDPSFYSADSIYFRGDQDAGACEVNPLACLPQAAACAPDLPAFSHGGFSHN

[2] = target: T1, primary amine oxidase (PrAO; SSAO/VAP-1); experiment: Amplex Red H2O2 assay of benzylamine and methylamine oxidation in adipose tissue homogenate; format: biochemical
[3] = target: T1, primary amine oxidase (PrAO; SSAO/VAP-1); experiment: as above; format: cell-based; details: read-out: % inhibition at 2.5 mM
[4] = target: T1, primary amine oxidase (PrAO; SSAO/VAP-1); experiment: Amplex Red H2O2 assay of benzylamine oxidation in adipose tissue homogenate; Lineweaver-Burk analysis; format: cell-based; details: read-out: % inhibition at 2.5 mM

CC(C)Cn1c(=O)n(C)c(=O)c2[nH]cnc21 [IBMX, 3-isobutyl-1-methylxanthine] gave an inhibition at 1000 µM [1] of roughly 80%.
NNC(N)=O [Semi, semicarbazide] was tested, and the “Amplex Red H2O2 assay of benzylamine and methylamine oxidation in adipose tissue” value [2] was “total inhibition at 1”.
Work on Cn1c(=O)c2c(ncn2C)n(C)c1=O [caffeine] yielded an inhibition at 2500 µM [3] of roughly 50%.
For Cn1cnc2c1c(=O)[nH]c(=O)n2C [theobromine], the inhibition at 2500 µM [4] was 54%.
